# According to ChEMBL document CHEMBL1131787, “Effects of ortho-substituent groups of sulochrin on inhibitory activity to eosinophil degranulation” (Bioorg Med Chem Lett, 1999):
# Test: Inhibitory activity against eosinophil degranulation
# Format: functional
row,IC50,SMILES
1,> 10000 nM,COc1cc(O)ccc1C(=O)c1c(O)cc(C)cc1O
2,40 nM,CCCCOC(=O)c1cc(O)cc(OC)c1C(=O)c1c(O)cc(C)cc1O
3,400 nM,COC(=O)c1cc(O)cc(O)c1C(=O)c1c(O)cc(C)cc1OC
4,100 nM,CCCOC(=O)c1cc(O)cc(OC)c1C(=O)c1c(O)cc(C)cc1O
5,> 10000 nM,COC(=O)c1cc(O)cc(O)c1C(=O)c1c(OC)cc(C)cc1OC
6,100 nM,CCOC(=O)c1cc(O)cc(OC)c1C(=O)c1c(O)cc(C)cc1O
7,300 nM,CCCCCCOC(=O)c1cc(O)cc(OC)c1C(=O)c1c(O)cc(C)cc1O
8,> 10000 nM,COC(=O)c1cc(O)cc(OC)c1C(=O)c1c(OCCO)cc(C)cc1OCCO
9,30 nM,CCC(C)OC(=O)c1cc(O)cc(OC)c1C(=O)c1c(O)cc(C)cc1O (stereo not drawn)
10,> 10000 nM,COC(=O)c1cc(O)cc(O)c1C(=O)c1c(O)cc(C)cc1O
11,300 nM,COC(=O)c1cc(O)cc(OC)c1C(=O)c1c(O)cc(C)cc1OC
12,> 10000 nM,COc1cc(O)cc(C(=O)O)c1C(=O)c1c(O)cc(C)cc1O
13,100 nM,COC(=O)c1cc(O)cc(OC)c1C(=O)c1c(O)cc(C)cc1O [SULOCHRIN]
